This is an account of results in ChEMBL document CHEMBL1134021, “Thienopyridines: nitric oxide synthase inhibitors with potent in vivo activity” (Bioorg Med Chem Lett, 2001).

One may read the pIC50 as −log10 of the IC50, conventionally taken in molar units. Higher therefore signals a small IC50. In general, inhibition refers to how much of the control response was suppressed. A high value points to a strong effect. For orientation: ED50 means the midpoint of the dose-response relation. A lower ED50 goes with greater potency.

One experiment addresses T1, Nitric oxide synthase 3 (Homo sapiens, UniProt P29474).
T1 sequence (P29474 whole entry): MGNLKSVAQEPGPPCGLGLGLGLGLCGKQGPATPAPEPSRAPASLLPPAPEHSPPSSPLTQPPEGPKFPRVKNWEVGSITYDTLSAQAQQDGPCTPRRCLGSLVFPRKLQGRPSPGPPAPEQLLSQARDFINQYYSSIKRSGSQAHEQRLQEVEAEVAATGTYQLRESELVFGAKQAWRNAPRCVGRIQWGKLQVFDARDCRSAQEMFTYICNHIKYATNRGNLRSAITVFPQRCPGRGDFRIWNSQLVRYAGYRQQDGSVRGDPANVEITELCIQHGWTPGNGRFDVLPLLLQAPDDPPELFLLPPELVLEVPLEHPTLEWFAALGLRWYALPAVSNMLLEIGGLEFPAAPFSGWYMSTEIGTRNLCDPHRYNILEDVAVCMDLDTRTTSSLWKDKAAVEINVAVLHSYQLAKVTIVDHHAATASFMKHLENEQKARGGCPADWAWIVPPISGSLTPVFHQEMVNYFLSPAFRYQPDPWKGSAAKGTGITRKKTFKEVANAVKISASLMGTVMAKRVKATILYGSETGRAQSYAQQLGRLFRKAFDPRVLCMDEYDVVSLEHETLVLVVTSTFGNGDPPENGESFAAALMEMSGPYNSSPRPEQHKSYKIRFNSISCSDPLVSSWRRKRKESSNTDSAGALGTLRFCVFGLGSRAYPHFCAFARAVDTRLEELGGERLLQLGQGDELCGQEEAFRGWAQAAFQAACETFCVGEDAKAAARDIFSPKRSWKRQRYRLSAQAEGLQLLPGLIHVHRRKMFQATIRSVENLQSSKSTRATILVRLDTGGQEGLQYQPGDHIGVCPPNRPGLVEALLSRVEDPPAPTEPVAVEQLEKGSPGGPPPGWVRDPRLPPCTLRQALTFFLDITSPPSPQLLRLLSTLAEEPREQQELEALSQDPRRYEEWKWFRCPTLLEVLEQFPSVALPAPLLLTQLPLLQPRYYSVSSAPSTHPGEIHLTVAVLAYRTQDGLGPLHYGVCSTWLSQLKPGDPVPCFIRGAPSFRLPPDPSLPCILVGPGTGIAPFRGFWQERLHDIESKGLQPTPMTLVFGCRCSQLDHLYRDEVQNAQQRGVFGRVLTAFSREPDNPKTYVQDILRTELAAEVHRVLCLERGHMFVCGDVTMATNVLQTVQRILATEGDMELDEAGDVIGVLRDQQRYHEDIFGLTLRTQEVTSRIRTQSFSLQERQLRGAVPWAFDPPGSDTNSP
As to the kind of experiment: Ability to inhibit the conversion of [3H]L-Arg to [3H]L-citrulline catalyzed by e-NOS from HUVEC cells. Type of experiment: functional, cell-based.

A further experiment deals with Nitric oxide synthase 1 (Rattus norvegicus, UniProt P29476). As to the kind of experiment: Ability to inhibit the conversion of [3H]-L-Arg to [3H]L-citrulline catalyzed by n-NOS from rat cerebellum. Type of experiment: functional, tissue-based.
Experiment [1] deals with Nitric oxide synthase, inducible (Homo sapiens, UniProt P35228). Briefly: Ability to inhibit the conversion of [3H]L-Arg to [3H]L-citrulline catalyzed by i-NOS from human DLD-1 cells. In kind it is functional, cell-based.
The test system of the next experiment is HUVEC. Briefly: Ability to inhibit the conversion of [3H]L-Arg to [3H]L-citrulline catalyzed by e-NOS from HUVEC cells at 100 uM concentration. Type of experiment: functional. Particulars: Homo sapiens.
In experiment [2] the test system is Rattus norvegicus. Briefly: In vivo inhibition of iNOS is determined from the inhibition of LPS-induced nitrite production measured in rat blood plasma at 3.2 umol/kg for 15 min. The note with it: 0.25 h. In kind it is functional.
Experiment [3] concerns Rattus norvegicus. Briefly: Dose required for half maximal increase in mean arterial blood pressure of 40 mmHg after 15 min in anaesthetised rats, as a measure of eNOS activity. In kind it is functional.
A further experiment deals with DLD-1. As to the kind of experiment: Concentration required to inhibit nitric oxide synthesis in DLD-1 cells. Type of experiment: functional, cell-based. The note with it: Homo sapiens.
Experiment [4] has as its system Rattus norvegicus. As to the kind of experiment: In vivo inhibition of iNOS is determined from the inhibition of LPS-induced nitrite production measured in rat blood plasma at 800 umol/kg for 15 min. Type of experiment: functional. Particulars: 0.25 h.

SMILES strings stand for the structures. pIC50: −log10 of the molar value.

Nitric oxide synthase 1, sequence (P29476 whole entry): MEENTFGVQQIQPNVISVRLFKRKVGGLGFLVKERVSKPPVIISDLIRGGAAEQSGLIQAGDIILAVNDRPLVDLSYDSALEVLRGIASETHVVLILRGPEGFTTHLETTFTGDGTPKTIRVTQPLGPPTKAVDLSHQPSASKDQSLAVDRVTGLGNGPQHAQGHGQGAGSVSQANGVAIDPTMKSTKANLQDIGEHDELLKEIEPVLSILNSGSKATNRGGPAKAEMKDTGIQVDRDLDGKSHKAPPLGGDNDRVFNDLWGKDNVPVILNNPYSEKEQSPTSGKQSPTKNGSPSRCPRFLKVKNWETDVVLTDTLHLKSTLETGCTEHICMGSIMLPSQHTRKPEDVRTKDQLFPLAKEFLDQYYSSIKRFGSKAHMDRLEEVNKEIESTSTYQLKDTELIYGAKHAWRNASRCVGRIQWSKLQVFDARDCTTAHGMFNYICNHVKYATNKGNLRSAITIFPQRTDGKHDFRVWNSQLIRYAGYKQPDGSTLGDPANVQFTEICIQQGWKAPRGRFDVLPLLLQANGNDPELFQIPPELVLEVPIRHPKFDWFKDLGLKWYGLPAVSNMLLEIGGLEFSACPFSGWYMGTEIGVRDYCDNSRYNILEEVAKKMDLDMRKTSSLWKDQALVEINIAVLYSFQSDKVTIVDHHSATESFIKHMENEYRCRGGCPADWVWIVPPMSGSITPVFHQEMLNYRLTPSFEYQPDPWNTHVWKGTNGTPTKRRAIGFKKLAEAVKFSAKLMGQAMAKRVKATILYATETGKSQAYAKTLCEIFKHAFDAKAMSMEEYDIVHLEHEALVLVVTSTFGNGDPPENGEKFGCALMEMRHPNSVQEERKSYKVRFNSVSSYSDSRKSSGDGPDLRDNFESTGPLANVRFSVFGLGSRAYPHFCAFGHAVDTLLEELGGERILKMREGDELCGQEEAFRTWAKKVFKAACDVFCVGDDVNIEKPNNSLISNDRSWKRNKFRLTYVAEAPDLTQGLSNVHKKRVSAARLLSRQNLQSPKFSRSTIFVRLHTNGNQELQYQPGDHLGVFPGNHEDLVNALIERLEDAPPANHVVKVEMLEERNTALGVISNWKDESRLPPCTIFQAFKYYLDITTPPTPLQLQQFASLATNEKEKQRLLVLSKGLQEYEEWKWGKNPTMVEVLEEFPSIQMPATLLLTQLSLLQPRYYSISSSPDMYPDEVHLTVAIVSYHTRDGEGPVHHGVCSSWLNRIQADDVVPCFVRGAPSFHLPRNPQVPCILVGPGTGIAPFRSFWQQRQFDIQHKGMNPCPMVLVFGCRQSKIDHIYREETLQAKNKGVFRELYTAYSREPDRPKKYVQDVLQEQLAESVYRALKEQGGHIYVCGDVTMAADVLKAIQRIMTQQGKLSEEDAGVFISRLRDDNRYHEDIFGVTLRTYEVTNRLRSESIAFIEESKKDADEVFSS
Nitric oxide synthase, inducible, sequence (P35228 whole entry): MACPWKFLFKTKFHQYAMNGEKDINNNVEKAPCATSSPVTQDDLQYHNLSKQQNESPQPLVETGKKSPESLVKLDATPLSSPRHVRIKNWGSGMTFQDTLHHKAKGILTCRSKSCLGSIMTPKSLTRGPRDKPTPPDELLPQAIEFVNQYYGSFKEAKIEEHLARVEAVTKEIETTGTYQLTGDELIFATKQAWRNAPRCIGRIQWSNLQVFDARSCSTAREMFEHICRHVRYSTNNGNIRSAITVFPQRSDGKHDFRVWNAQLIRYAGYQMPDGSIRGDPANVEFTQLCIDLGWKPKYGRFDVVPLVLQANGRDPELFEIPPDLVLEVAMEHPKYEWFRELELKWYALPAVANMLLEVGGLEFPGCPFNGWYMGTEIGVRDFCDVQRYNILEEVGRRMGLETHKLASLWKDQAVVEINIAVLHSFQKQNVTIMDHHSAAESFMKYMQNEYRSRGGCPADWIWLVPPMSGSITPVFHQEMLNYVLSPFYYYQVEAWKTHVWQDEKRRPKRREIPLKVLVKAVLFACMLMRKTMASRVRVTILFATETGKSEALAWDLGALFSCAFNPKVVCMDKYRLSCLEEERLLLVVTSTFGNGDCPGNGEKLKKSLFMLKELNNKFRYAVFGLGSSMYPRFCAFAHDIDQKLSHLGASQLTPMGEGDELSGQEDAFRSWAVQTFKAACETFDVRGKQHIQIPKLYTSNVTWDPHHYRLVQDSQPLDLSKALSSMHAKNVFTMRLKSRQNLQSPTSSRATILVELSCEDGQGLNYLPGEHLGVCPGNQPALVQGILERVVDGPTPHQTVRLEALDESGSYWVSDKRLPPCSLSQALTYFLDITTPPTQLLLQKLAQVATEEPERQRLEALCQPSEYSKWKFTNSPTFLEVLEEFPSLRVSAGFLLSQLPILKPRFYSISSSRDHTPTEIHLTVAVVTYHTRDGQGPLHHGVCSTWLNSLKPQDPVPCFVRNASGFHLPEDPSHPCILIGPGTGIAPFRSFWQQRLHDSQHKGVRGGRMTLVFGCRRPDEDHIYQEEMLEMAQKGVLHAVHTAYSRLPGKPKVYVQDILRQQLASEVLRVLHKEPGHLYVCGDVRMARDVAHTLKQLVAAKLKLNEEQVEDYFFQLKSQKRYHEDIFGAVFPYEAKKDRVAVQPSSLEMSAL

Consider `NC1=NCCc2ccsc21`, for which the pIC50 was 6.55 against Nitric oxide synthase 3, 6.26 against Nitric oxide synthase 1 and 6.14 in experiment [1].
On to `NC1=NC(C#Cc2ccccc2)Cc2ccsc21` (stereo not given), for which, in the experiment with HUVEC, the inhibition at 100 µM is less than 25%. Besides, the values for the pIC50 (on Nitric oxide synthase 1; in experiment [1]) were 5.39 and 4.55, respectively.
Turning to `NC1=NCCc2sccc21`, the pIC50 on Nitric oxide synthase 1 is 7.00; in experiment [1], 5.80.
In the experiment with Rattus norvegicus [2], `NC1=NC(c2ccco2)Cc2ccsc21` (stereo not given) registered an ED50 of 0.4 µmol/kg. Further, the pIC50 was 6.04 on Nitric oxide synthase 3, 5.66 in the experiment on DLD-1, 7.40 against Nitric oxide synthase 1 and 7.05 in experiment [1]. This molecule registered a Dose with Rattus norvegicus [3] of 0.4 µM/kg.
Regarding `NC1=NC(c2cccnc2)Cc2ccsc21` (stereo not given), the pIC50 at Nitric oxide synthase 1 is 6.59; in experiment [1], 5.55.
For the molecule `NC1=NC(c2ccccc2)Cc2sccc21` (stereo not given), the figures for the pIC50 (on Nitric oxide synthase 3; against Nitric oxide synthase 1; in experiment [1]) were 5.02, 6.13 and 5.57, respectively.
Take `NC1=NC(c2cccs2)Cc2ccsc21` (stereo not given): the pIC50 at Nitric oxide synthase 3 is 5.72; in the experiment with DLD-1 it was 5.04; on Nitric oxide synthase 1, 7.30; in experiment [1], 6.82.
In the case of `NC1=NC(C2CC2)Cc2sccc21` (stereo not given), the pIC50 against Nitric oxide synthase 3 is 6.12; in the experiment with DLD-1, 5.06; on Nitric oxide synthase 1, 7.74; in experiment [1] it was 6.72.
For the molecule `NC1=NC(c2ccccc2)Cc2ccsc21` (stereo not given), the negative-log IC50 (pIC50) on Nitric oxide synthase 3 is 5.40; on Nitric oxide synthase 1, 6.85; in experiment [1] it was 5.08.
`C#CC1Cc2sccc2C(N)=N1` (stereo not given): the pIC50 against Nitric oxide synthase 3 was 6.92; in the experiment on DLD-1, 4.82; against Nitric oxide synthase 1, 7.60; in experiment [1] it was 6.96.
`CC(C)(C)C#CC1Cc2ccsc2C(N)=N1` (stereo not given) yielded an inhibition at 100 µM in the experiment with HUVEC of less than 25%. Besides, the pIC50 on Nitric oxide synthase 1 was 5.00; in experiment [1] it was 5.44.
In the case of `C#CC1Cc2ccsc2C(N)=N1` (stereo not given), the pIC50 against Nitric oxide synthase 3 is 7.10; in the experiment on DLD-1, 5.24; against Nitric oxide synthase 1, 8.22; in experiment [1], 7.40.
Take `CC#CC1Cc2ccsc2C(N)=N1` (stereo not given): the pIC50 against Nitric oxide synthase 3 was 5.30; in the experiment on DLD-1 it was 4.47; against Nitric oxide synthase 1, 7.10; in experiment [1] it was 6.82.
On to `C#CC1Cc2cc(C)sc2C(N)=N1` (stereo not given), for which the pIC50 against Nitric oxide synthase 3 was 5.00; against Nitric oxide synthase 1, 6.04; in experiment [1], 5.46.
With `NC1=NC(C2CC2)Cc2ccsc21` (stereo not given), the pIC50 against Nitric oxide synthase 3 is 7.30; in the experiment with DLD-1, 5.44; on Nitric oxide synthase 1, 7.96; in experiment [1] it was 7.29.
With `CNC(=N)NCCCC(N)C(=O)O` (single isomer, unassigned) [TILARGININE], in the experiment on Rattus norvegicus [4], the ED50 was 100 µmol/kg. Also, the Dose in the experiment on Rattus norvegicus [3] was found to be 100 µM/kg. The molecule also gave a negative logarithm of the IC50 (pIC50) in the experiment with DLD-1 of 3.77.
